# From patent US8895499B2, “β-hairpin peptidomimetics” (Polyphor AG, priority 2010, dated 2014)
# Peptide text beside a SMILES is read from it.
# Key:
# [1] = system: Shigella boydii DSM 7532; conditions: Mueller-Hinton II broth + 0.02% BSA, 18-20 hours at 37° C.
# Protocol: […] colony forming units (CFU)/mL. Aliquots (50 μl) of inoculate were added to 50 μl of MH broth+0.02% BSA containing the peptide in serial two-fold dilutions. The following microorganisms were used to determine antibiotic selectivity of the peptides: Bacillus subtilis DSM 10 and Shigella boydii DSM 7532.
# [2] = system: human red blood cells (hRBC); type: cell-based; conditions: red cells of human, 1 h
# Protocol: The peptides were tested for their hemolytic activity against human red blood cells (hRBC). Fresh hRBC were washed three times with phosphate buffered saline (PBS) and centrifuged for 10 min at 2000×g. Compounds (100 μg/mL) were incubated with 20% hRBC (v/v) for 1 h at 37° C. and shaking at 300 rpm. The final erythrocyte concentration was approximately 0.9×10^9 cells/mL. A value of 0% and 100% cell lyses, respectively, was determined by incubation of hRBC in the presence of PBS containing 0.001% acetic acid and 2.5% Triton X-100 in H2O, respectively. The samples were centrifuged, the supernatants were 8-fold diluted in PBS buffer and the optical densities (OD) were measured at 540 nm. The 100% lyses value (OD540H2O) gave an OD50 of approximately 0.5-1.0.
# Percent hemolysis was calculated as follows: (OD540peptide/OD540H2O)×100%.
# [3] = in vitro; type: cell-based
# Protocol: The cytotoxicity of the peptides to HELA cells (Acc57) and COS-7 cells (CRL-1651) was determined using the MTT reduction assay (T. Mossman, J. Immunol. Meth. 1983, 65, 55-63; M. V. Berridge, A. S. Tan, Arch. Biochem. Biophys. 1993, 303, 474-482). Briefly, the method was as follows: 4000 HELA cells/well and 3400 COS-7 cells/well were seeded and grown in 96-well microtiter plates for 24 h at 37° C. at 5% CO2. Thereafter, time zero (Tz) was determined by MTT reduction (see below). The supernatant of the remaining wells was discarded, and fresh medium and compounds in serial dilutions (12.5, 25 and 50 μg/mL, triplicates) were pipetted into the wells. After incubation of the cells for 48 h at 37° C. at 5% CO2 the supernatant was discarded again and 100 μL MTT reagent (0.5 mg/mL in RPMI1640 and DMEM, respectively)/well was added. Following incubation at 37° C. for 2-4 h the media were aspirated and the cells were spiked (100 μL isopropanol/well). The absorbance of the solubilized formazan was measured at 595 nm (OD595peptide). For each concentration averages were calculated from triplicates. The percentage of growth was calculated as follows: (OD595peptide-OD595Tz-OD595Empty well)/(OD595Tz-OD595Empty well)×100%. The GI50 (Growth Inhibition) concentrations were calculated for each peptide by using a trend line function for the concentrations (50, 25, 12.5 and 0 μg/mL), the corresponding percentages and the value 50, (=TREND (C50:C0%50:%0,50).
structure (smiles),measurement,setting,value
"CC[C@H](C)[C@@H]1NC(=O)[C@H](CCCNC(=N)N)NC(=O)[C@H](Cc2c[nH]c3ccccc23)NC(=O)[C@@H]2CCCN2C(=O)[C@H]2CCCN2C(=O)[C@H](CCCNC(=N)N)NC(=O)[C@H](CCCNC(=N)N)NC(=O)[C@H](CC(C)C)NC(=O)[C@H](CCN)NC(=O)[C@H](CCCCN)NC(=O)[C@H](CC(N)=O)NC(=O)[C@@H](CCCNC(=N)N)NC(=O)[C@H]([C@@H](C)CC)NC(=O)[C@H](CCCNC(=N)N)NC1=O [Example 1] (HELM PEPTIDE1{W.R.I.R.I.[dR].N.K.[Dab].L.R.R.[dP].P}$PEPTIDE1,PEPTIDE1,1:R1-14:R2$$$V2.0)",Shigella boydii DSM 7532 MIC,[1],8 µg/mL
same,Hemolysis at 100 μg/mL,[2],0.0%
same,GI50 at 48 h,[3]; African green monkey,> 50 µg/mL
same,GI50 at 48 h,[3]; human,> 50 µg/mL
"CC[C@H](C)[C@@H]1NC(=O)[C@H](CCCNC(=N)N)NC(=O)[C@H](Cc2c[nH]c3ccccc23)NC(=O)[C@@H]2CCCN2C(=O)[C@H]2CCCN2C(=O)[C@H](CCC(N)=O)NC(=O)[C@H](CCCNC(=N)N)NC(=O)[C@H](CC(C)C)NC(=O)[C@H](CCCNC(=N)N)NC(=O)[C@H](CCCCN)NC(=O)[C@H](CC(N)=O)NC(=O)[C@@H](CCCNC(=N)N)NC(=O)[C@H]([C@@H](C)CC)NC(=O)[C@H](CCCNC(=N)N)NC1=O [Example 2] (HELM PEPTIDE1{W.R.I.R.I.[dR].N.K.R.L.R.Q.[dP].P}$PEPTIDE1,PEPTIDE1,1:R1-14:R2$$$V2.0)",Shigella boydii DSM 7532 MIC,[1],4 µg/mL
same,Hemolysis at 100 μg/mL,[2],0.0%
same,GI50 at 48 h,[3]; African green monkey,> 50 µg/mL
same,GI50 at 48 h,[3]; human,> 50 µg/mL
"CC[C@H](C)[C@@H]1NC(=O)[C@H](CCCNC(=N)N)NC(=O)[C@H](Cc2c[nH]c3ccccc23)NC(=O)[C@@H]2CCCN2C(=O)[C@H]2CCCN2C(=O)[C@H](C)NC(=O)[C@H](CCCNC(=N)N)NC(=O)[C@H](CC(N)=O)NC(=O)[C@H](CCCNC(=N)N)NC(=O)[C@H](CCCCN)NC(=O)[C@H](CC(N)=O)NC(=O)[C@@H](CCCNC(=N)N)NC(=O)[C@H]([C@@H](C)CC)NC(=O)[C@H](CCCNC(=N)N)NC1=O [Example 3] (HELM PEPTIDE1{W.R.I.R.I.[dR].N.K.R.N.R.A.[dP].P}$PEPTIDE1,PEPTIDE1,1:R1-14:R2$$$V2.0)",Shigella boydii DSM 7532 MIC,[1],16 µg/mL
same,Hemolysis at 100 μg/mL,[2],0.1%
same,GI50 at 48 h,[3]; African green monkey,> 50 µg/mL
same,GI50 at 48 h,[3]; human,> 50 µg/mL
"CC[C@H](C)[C@@H]1NC(=O)[C@H](CCCNC(=N)N)NC(=O)[C@H](Cc2c[nH]c3ccccc23)NC(=O)[C@@H]2CCCN2C(=O)[C@H]2CCCN2C(=O)[C@H](C)NC(=O)[C@H](CCC(N)=O)NC(=O)[C@H](CC2CCCCC2)NC(=O)[C@H](CCCNC(=N)N)NC(=O)[C@H](CCC(N)=O)NC(=O)[C@H](CC(N)=O)NC(=O)[C@@H](CCCNC(=N)N)NC(=O)[C@H]([C@@H](C)CC)NC(=O)[C@H](CCCNC(=N)N)NC1=O [Example 4] (HELM PEPTIDE1{W.R.I.R.I.[dR].N.Q.R.[Cha].Q.A.[dP].P}$PEPTIDE1,PEPTIDE1,1:R1-14:R2$$$V2.0)",Shigella boydii DSM 7532 MIC,[1],>16 µg/mL
same,Hemolysis at 100 μg/mL,[2],0.8%
same,GI50 at 48 h,[3]; African green monkey,> 50 µg/mL
same,GI50 at 48 h,[3]; human,> 50 µg/mL
"CC[C@H](C)[C@@H]1NC(=O)[C@H](CCN)NC(=O)[C@H](Cc2c[nH]c3ccccc23)NC(=O)[C@@H]2CCCN2C(=O)[C@H]2CCCN2C(=O)[C@H](C)NC(=O)[C@H](CCC(N)=O)NC(=O)[C@H](CC(C)C)NC(=O)[C@H](CCCNC(=N)N)NC(=O)[C@H](CCC(N)=O)NC(=O)[C@H](CC(N)=O)NC(=O)[C@@H](CCCNC(=N)N)NC(=O)[C@H]([C@@H](C)CC)NC(=O)[C@H](CCCNC(=N)N)NC1=O [Example 5] (HELM PEPTIDE1{W.[Dab].I.R.I.[dR].N.Q.R.L.Q.A.[dP].P}$PEPTIDE1,PEPTIDE1,1:R1-14:R2$$$V2.0)",Shigella boydii DSM 7532 MIC,[1],16 µg/mL
same,Hemolysis at 100 μg/mL,[2],0.0%
same,GI50 at 48 h,[3]; African green monkey,> 50 µg/mL
same,GI50 at 48 h,[3]; human,> 50 µg/mL
"CC[C@H](C)[C@@H]1NC(=O)[C@H](CCCN)NC(=O)[C@H](Cc2c[nH]c3ccccc23)NC(=O)[C@@H]2CCCN2C(=O)[C@H]2CCCN2C(=O)[C@H](C)NC(=O)[C@H](CCC(N)=O)NC(=O)[C@H](CC(C)C)NC(=O)[C@H](CCCNC(=N)N)NC(=O)[C@H](CCC(N)=O)NC(=O)[C@H](CC(N)=O)NC(=O)[C@@H](CCCNC(=N)N)NC(=O)[C@H]([C@@H](C)CC)NC(=O)[C@H](CCCNC(=N)N)NC1=O [Example 6] (HELM PEPTIDE1{W.[Orn].I.R.I.[dR].N.Q.R.L.Q.A.[dP].P}$PEPTIDE1,PEPTIDE1,1:R1-14:R2$$$V2.0)",Shigella boydii DSM 7532 MIC,[1],>16 µg/mL
same,Hemolysis at 100 μg/mL,[2],0.0%
same,GI50 at 48 h,[3]; African green monkey,> 50 µg/mL
same,GI50 at 48 h,[3]; human,> 50 µg/mL
"CC[C@H](C)[C@@H]1NC(=O)[C@H](CCCNC(=N)N)NC(=O)[C@H](Cc2c[nH]c3ccccc23)NC(=O)[C@@H]2CCCN2C(=O)[C@H]2CCCN2C(=O)[C@H](C)NC(=O)[C@H](CCC(N)=O)NC(=O)[C@H](CC(C)C)NC(=O)[C@H](CCCNC(=N)N)NC(=O)[C@H](CCC(N)=O)NC(=O)[C@H](CC(N)=O)NC(=O)[C@@H](CCCNC(=N)N)NC(=O)[C@H]([C@@H](C)CC)NC(=O)[C@H](CCN)NC1=O [Example 7] (HELM PEPTIDE1{W.R.I.[Dab].I.[dR].N.Q.R.L.Q.A.[dP].P}$PEPTIDE1,PEPTIDE1,1:R1-14:R2$$$V2.0)",Shigella boydii DSM 7532 MIC,[1],>16 µg/mL
same,Hemolysis at 100 μg/mL,[2],0.0%
same,GI50 at 48 h,[3]; African green monkey,> 50 µg/mL
same,GI50 at 48 h,[3]; human,> 50 µg/mL
"CC[C@H](C)[C@@H]1NC(=O)[C@H](CCCNC(=N)N)NC(=O)[C@H](Cc2c[nH]c3ccccc23)NC(=O)[C@@H]2CCCN2C(=O)[C@H]2CCCN2C(=O)[C@H](C)NC(=O)[C@H](CCC(N)=O)NC(=O)[C@H](CC(C)C)NC(=O)[C@H](CCCNC(=N)N)NC(=O)[C@H](CCC(N)=O)NC(=O)[C@H](CC(N)=O)NC(=O)[C@@H](CCCNC(=N)N)NC(=O)[C@H]([C@@H](C)CC)NC(=O)[C@H](CCCN)NC1=O [Example 8] (HELM PEPTIDE1{W.R.I.[Orn].I.[dR].N.Q.R.L.Q.A.[dP].P}$PEPTIDE1,PEPTIDE1,1:R1-14:R2$$$V2.0)",Shigella boydii DSM 7532 MIC,[1],16 µg/mL
same,Hemolysis at 100 μg/mL,[2],0.0%
same,GI50 at 48 h,[3]; African green monkey,> 50 µg/mL
same,GI50 at 48 h,[3]; human,> 50 µg/mL
"CC[C@H](C)[C@@H]1NC(=O)[C@H](CCCNC(=N)N)NC(=O)[C@H]([C@@H](C)CC)NC(=O)[C@H](CCCNC(=N)N)NC(=O)[C@H](Cc2c[nH]c3ccccc23)NC(=O)[C@@H]2CCCN2C(=O)[C@H]2CCCN2C(=O)[C@H](C)NC(=O)[C@H](CCC(N)=O)NC(=O)[C@H](CC(C)C)NC(=O)[C@H](CCCNC(=N)N)NC(=O)[C@H](CCC(N)=O)NC(=O)[C@H](CC(N)=O)NC(=O)[C@H](CCCN)NC1=O [Example 9] (HELM PEPTIDE1{W.R.I.R.I.[Orn].N.Q.R.L.Q.A.[dP].P}$PEPTIDE1,PEPTIDE1,1:R1-14:R2$$$V2.0)",Shigella boydii DSM 7532 MIC,[1],>16 µg/mL
same,Hemolysis at 100 μg/mL,[2],0.0%
same,GI50 at 48 h,[3]; African green monkey,> 50 µg/mL
same,GI50 at 48 h,[3]; human,> 50 µg/mL
"CC[C@H](C)[C@@H]1NC(=O)[C@H](CCCNC(=N)N)NC(=O)[C@H]([C@@H](C)CC)NC(=O)[C@H](CCCNC(=N)N)NC(=O)[C@H](Cc2c[nH]c3ccccc23)NC(=O)[C@@H]2CCCN2C(=O)[C@H]2CCCN2C(=O)[C@H](C)NC(=O)[C@H](CCC(N)=O)NC(=O)[C@H](CC(C)C)NC(=O)[C@H](CCCNC(=N)N)NC(=O)[C@H](CCC(N)=O)NC(=O)[C@H](CC(N)=O)NC(=O)[C@H](CCN)NC1=O [Example 10] (HELM PEPTIDE1{W.R.I.R.I.[Dab].N.Q.R.L.Q.A.[dP].P}$PEPTIDE1,PEPTIDE1,1:R1-14:R2$$$V2.0)",Shigella boydii DSM 7532 MIC,[1],>16 µg/mL
same,Hemolysis at 100 μg/mL,[2],0.4%
same,GI50 at 48 h,[3]; African green monkey,> 50 µg/mL
same,GI50 at 48 h,[3]; human,> 50 µg/mL
"CC[C@H](C)[C@@H]1NC(=O)[C@H](CCCNC(=N)N)NC(=O)[C@H](Cc2c[nH]c3ccccc23)NC(=O)[C@@H]2CCCN2C(=O)[C@H]2CCCN2C(=O)[C@H](C)NC(=O)[C@H](CCC(N)=O)NC(=O)[C@H](CC(C)C)NC(=O)[C@H](CCCNC(=N)N)NC(=O)[C@H](CCC(N)=O)NC(=O)[C@H](CCC(N)=O)NC(=O)[C@@H](CCCNC(=N)N)NC(=O)[C@H]([C@@H](C)CC)NC(=O)[C@H](CCCNC(=N)N)NC1=O [Example 11] (HELM PEPTIDE1{W.R.I.R.I.[dR].Q.Q.R.L.Q.A.[dP].P}$PEPTIDE1,PEPTIDE1,1:R1-14:R2$$$V2.0)",Shigella boydii DSM 7532 MIC,[1],>16 µg/mL
same,Hemolysis at 100 μg/mL,[2],0.0%
same,GI50 at 48 h,[3]; African green monkey,> 50 µg/mL
same,GI50 at 48 h,[3]; human,> 50 µg/mL
